Data taken from patent US20160235752A1, “COMPOSITIONS, METHODS OF USE, AND METHODS OF TREATMENT” (THE UNIVERSITY OF NEW ORLEANS, priority 2013, published 2016).
Converted amounts (≈) assume the structure as drawn.

Key:
[1] = test system: Candida albicans (ATCC no. 10231); experiment: MIC determination by broth microdilution (NCCLS), visual scoring; type: cell-based; details: for MIC80: Candida albicans, ATCC10231, read-out: MIC80 C. albicans
Protocol: The antifungal activity of the 2,4,6-pyrimidinetrione analogs shown in Schemes 2-6 were evaluated in vitro using Candida albicans (ATCC no. 10231) and Candida glabrata (ATCC no 48435). All assays were done in accordance with NCCLS reference documents^29.
(§1) Master stock concentrations of all tested compounds were prepared to ensure that the maximum final concentration of DMSO was 1% or less. Subsequent 2-fold serial dilutions were made using sterile water to a final concentration of 1280-5.00 μg/ml. A final 10-fold dilution of each drug was made by aliquotting 0.1 mL of each drug dilution into 0.9 mL of fungal suspension in RPMI 1640 media with 10 mM HEPES buffer added (see methodology below), giving final concentrations tested in the range of 128-0.5 μg/ml.
(§2) Antifungal susceptibility studies and minimal inhibitory concentrations (MIC) values for Candida albicans (ATCC no. 10231) and Candida glabrata (ATCC no. 48435) were determined by the broth microdilution technique in accordance with NCCLS reference documents. Microdilution panels ranged from 0.5 to 128 μg/mL. All organisms were subcultured on Sabouraud agar and passaged to ensure purity and viability. The initiating inocula were prepared by picking 5-7 isolated colonies ˜1 mm in diameter from freshly prepared YM agar plates. Colonies were resuspended in sterile water, vortexed and the cell density was adjusted spectrophotometrically to the transmittance of a 0.5 McFarland standard at a wavelength of 530 nm, to yield a stock suspension of 1×10^6-5×10^6 cells/mL. The stock was allowed to hydrate for 30 minutes at room temperature. A working suspension was then made by diluting the stock 1:50 with RPMI 1640 media containing HEPES buffer. The working suspension was used for all assays. The plates were incubated at 35° C. for 48-72 hours in a humid atmosphere. Growth was scored visually. MIC values are defined as the lowest concentration of agent that prevents any discernible growth, ˜80% reduction of growth, as compared with drug-free control wells. All assays were run in parallel using either fluconazole or amphotericin B at the NCCLS recommended concentrations^29 as a drug control (Sigma-Aldrich).

[2] = test system: Candida glabrata (ATCC no. 48435); experiment: as above; type: cell-based; details: for MIC80: Nakaseomyces glabratus, ATCC48435, read-out: MIC80 C. glabrata
Protocol: The antifungal activity of the 2,4,6-pyrimidinetrione analogs shown in Schemes 2-6 were evaluated in vitro using Candida albicans (ATCC no. 10231) and Candida glabrata (ATCC no 48435). All assays were done in accordance with NCCLS reference documents^29. The results of these screenings are summarized in Tables 1-9 as the minimal inhibitory concentrations that inhibited more than 80% fungal growth as compared to the positive controls in 1% DMSO and RPMI media. All MIC screens were done using a visual scoring method as opposed to spectroscopic methods of analysis, due to the physical properties of many of the compounds altering their absorbance spectra relative to the positive, negative and drug controls.
as §1, with “None of the compounds tested over the course of these studies were soluble in water and DMSO was used to dilute each compound tested. Master” for “Master”
as §2

[3] = Table 1, 5-Acyl-2,4,6-pyrimidinetriones, >80% growth inhibition, RPMI, 1% DMSO
[4] = Table 7, Phenylhydrazones of 5-Acylpyrimidinetriones
[5] = Table 5, Schiff Bases of 5-acylpyrimidinetriones
[6] = Table 8, N-Acylhydrazones of 5-Acylpyrimidinetriones
[7] = Table 2, 5-Arylidene-2,4,6-pyrimidinetriones

Structure (SMILES): O=CC1C(=O)NC(=O)NC1=O [BA18]
- MIC80 C. albicans [1, 3]: — (none of the 5-acyl-2,4,6-pyrimidinetriones, 5-alkylated pyrimidinetriones or the 5,5-dialkylated pyrimidinetriones showed antifungal activity through 125 μg/mL)
- MIC80 C. glabrata [2, 3]: — (none of the 5-acyl-2,4,6-pyrimidinetriones, 5-alkylated pyrimidinetriones or the 5,5-dialkylated pyrimidinetriones showed antifungal activity through 125 μg/mL)

Structure (SMILES): CN1C(=O)C(C=O)C(=O)N(C)C1=O [BA19, 1,3-dimethyl-2,4,6-trioxohexahydropyrimidine-5-carbaldehyde]
- MIC80 [1]: > 125 µg/mL
- MIC80 [2]: > 125 µg/mL

Structure (SMILES): CC(=O)C1C(=O)NC(=O)NC1=O [BA20]
- MIC80 [1]: > 125 µg/mL
- MIC80 [2]: > 125 µg/mL

Structure (SMILES): CC(=O)C1C(=O)NC(=O)N(c2ccccc2)C1=O (centres unmarked) [BA21]
- MIC80 C. albicans [1, 3]: — (none of the 5-acyl-2,4,6-pyrimidinetriones, 5-alkylated pyrimidinetriones or the 5,5-dialkylated pyrimidinetriones showed antifungal activity through 125 μg/mL)
- MIC80 C. glabrata [2, 3]: — (none of the 5-acyl-2,4,6-pyrimidinetriones, 5-alkylated pyrimidinetriones or the 5,5-dialkylated pyrimidinetriones showed antifungal activity through 125 μg/mL)

Structure (SMILES): CN1C(=O)C(/C=N/Nc2ccc([N+](=O)[O-])cc2)C(=O)N(C)C1=O [BA23, 1,3-Dimethyl-5-{(E)-[2-(4-nitrophenyl)hydrazinylidene]methyl}pyrimidine-2,4,6-trione]
- MIC80 [1]: 2 µg/mL (≈ 6.26 µM)
- MIC80 [2]: 2 µg/mL (≈ 6.26 µM)

Structure (SMILES): O=C1NC(=O)C(/C=N/Nc2ccc([N+](=O)[O-])cc2[N+](=O)[O-])C(=O)N1 [BA24, 5-{(E)-[2-(2,4-Dinitrophenyl)hydrazinylidene]methyl}pyrimidine-2,4,6-trione]
- MIC80 [1]: > 125 µg/mL
- MIC80 [2]: 125 µg/mL (≈ 372 µM)

Structure (SMILES): C/C(=N\Nc1ccc([N+](=O)[O-])cc1[N+](=O)[O-])C1C(=O)NC(=O)NC1=O [BA26, 5-{(1E)-1-[2-(2,4-Dinitrophenyl)hydrazinylidene]ethyl}pyrimidine-2,4,6-trione]
- MIC80 [1]: > 125 µg/mL
- MIC80 [2]: > 125 µg/mL

Structure (SMILES): C/C(=N\Nc1ccc([N+](=O)[O-])cc1[N+](=O)[O-])C1C(=O)N(C)C(=O)N(C)C1=O [BA27, 5-{(1E)-1-[2-(2,4-dinitrophenyl)hydrazinylidene]ethyl}-1,3-dimethylpyrimidine-2,4,6-trione]
- MIC80 [1]: > 125 µg/mL
- MIC80 [2]: > 125 µg/mL

Structure (SMILES): C/C(=N\CCCCCC(=O)O)C1C(=O)NC(=O)NC1=O [BA29, 6-{(E)-[1-(2,4,6-trioxohexahydropyrimidin-5-yl)ethylidene]amino}hexanoic acid]
- MIC80 [1]: > 125 µg/mL
- MIC80 [2]: > 125 µg/mL

Structure (SMILES): O=C1NC(=O)C(/C(=N/Nc2ccc([N+](=O)[O-])cc2[N+](=O)[O-])c2ccccc2)C(=O)N1 [BA30, 5-[(Z)-[2-(2,4-Dinitrophenyl)hydrazinylidene](phenyl)methyl]pyrimidine-2,4,6-trione]
- MIC80 [1]: > 125 µg/mL
- MIC80 [2]: > 125 µg/mL

Structure (SMILES): CCCCN1C(=O)NC(=O)C(C(=NNc2ccc([N+](=O)[O-])cc2[N+](=O)[O-])c2ccccc2)C1=O (centres unmarked) [BA31]
- MIC80 C. albicans [1, 4]: — (none of the 5-acyl-2,4,6-pyrimidinetriones, 5-alkylated pyrimidinetriones or the 5,5-dialkylated pyrimidinetriones showed antifungal activity through 125 μg/mL)
- MIC80 C. glabrata [2, 4]: — (none of the 5-acyl-2,4,6-pyrimidinetriones, 5-alkylated pyrimidinetriones or the 5,5-dialkylated pyrimidinetriones showed antifungal activity through 125 μg/mL)

Structure (SMILES): O=C1NC(=O)N(c2ccccc2)C(=O)C1C(=NNc1ccc([N+](=O)[O-])cc1[N+](=O)[O-])c1ccccc1 (centres unmarked) [BA32]
- MIC80 C. albicans [1, 4]: — (none of the 5-acyl-2,4,6-pyrimidinetriones, 5-alkylated pyrimidinetriones or the 5,5-dialkylated pyrimidinetriones showed antifungal activity through 125 μg/mL)
- MIC80 C. glabrata [2, 4]: — (none of the 5-acyl-2,4,6-pyrimidinetriones, 5-alkylated pyrimidinetriones or the 5,5-dialkylated pyrimidinetriones showed antifungal activity through 125 μg/mL)

Structure (SMILES): CN1C(=O)C(C(=NNc2ccc(C(=O)O)cc2)c2ccccc2)C(=O)N(C)C1=O [BA33]
- MIC80 C. albicans [1, 4]: — (none of the 5-acyl-2,4,6-pyrimidinetriones, 5-alkylated pyrimidinetriones or the 5,5-dialkylated pyrimidinetriones showed antifungal activity through 125 μg/mL)
- MIC80 C. glabrata [2, 4]: — (none of the 5-acyl-2,4,6-pyrimidinetriones, 5-alkylated pyrimidinetriones or the 5,5-dialkylated pyrimidinetriones showed antifungal activity through 125 μg/mL)

Structure (SMILES): CN1C(=O)C(C(=NNc2ccc([N+](=O)[O-])cc2[N+](=O)[O-])c2ccc(O)cc2)C(=O)N(C)C1=O [BA34]
- MIC80 C. albicans [1, 4]: — (none of the 5-acyl-2,4,6-pyrimidinetriones, 5-alkylated pyrimidinetriones or the 5,5-dialkylated pyrimidinetriones showed antifungal activity through 125 μg/mL)
- MIC80 C. glabrata [2, 4]: — (none of the 5-acyl-2,4,6-pyrimidinetriones, 5-alkylated pyrimidinetriones or the 5,5-dialkylated pyrimidinetriones showed antifungal activity through 125 μg/mL)

Structure (SMILES): COc1ccc(C(=NCCCCCC(=O)O)C2C(=O)NC(=O)NC2=O)cc1 [BA35]
- MIC80 C. albicans [1, 5]: — (none of the 5-acyl-2,4,6-pyrimidinetriones, 5-alkylated pyrimidinetriones or the 5,5-dialkylated pyrimidinetriones showed antifungal activity through 125 μg/mL)
- MIC80 C. glabrata [2, 5]: — (none of the 5-acyl-2,4,6-pyrimidinetriones, 5-alkylated pyrimidinetriones or the 5,5-dialkylated pyrimidinetriones showed antifungal activity through 125 μg/mL)

Structure (SMILES): COC(=O)NN=C(c1ccc(O)cc1)C1C(=O)N(C)C(=O)N(C)C1=O [BA36]
- MIC80 C. albicans [1, 6]: — (none of the 5-acyl-2,4,6-pyrimidinetriones, 5-alkylated pyrimidinetriones or the 5,5-dialkylated pyrimidinetriones showed antifungal activity through 125 μg/mL)
- MIC80 C. glabrata [2, 6]: — (none of the 5-acyl-2,4,6-pyrimidinetriones, 5-alkylated pyrimidinetriones or the 5,5-dialkylated pyrimidinetriones showed antifungal activity through 125 μg/mL)

Structure (SMILES): COC(=O)NN=C(c1ccc([N+](=O)[O-])cc1)C1C(=O)NC(=O)NC1=O [BA37]
- MIC80 C. albicans [1, 6]: — (none of the 5-acyl-2,4,6-pyrimidinetriones, 5-alkylated pyrimidinetriones or the 5,5-dialkylated pyrimidinetriones showed antifungal activity through 125 μg/mL)
- MIC80 C. glabrata [2, 6]: — (none of the 5-acyl-2,4,6-pyrimidinetriones, 5-alkylated pyrimidinetriones or the 5,5-dialkylated pyrimidinetriones showed antifungal activity through 125 μg/mL)

Structure (SMILES): O=C1NC(=O)C(C(=NNc2ccc(C(=O)O)cc2)C2C(=O)NC(=O)NC2=O)C(=O)N1 [BA38]
- MIC80 C. albicans [1, 4]: — (none of the 5-acyl-2,4,6-pyrimidinetriones, 5-alkylated pyrimidinetriones or the 5,5-dialkylated pyrimidinetriones showed antifungal activity through 125 μg/mL)
- MIC80 C. glabrata [2, 4]: 125 µg/mL (≈ 300 µM)

Structure (SMILES): O=C1NC(=O)C(=Cc2ccccc2)C(=O)N1 [BA39]
- MIC80 C. albicans [1, 7]: — (none of the 5-acyl-2,4,6-pyrimidinetriones, 5-alkylated pyrimidinetriones or the 5,5-dialkylated pyrimidinetriones showed antifungal activity through 125 μg/mL)
- MIC80 C. glabrata [2, 7]: — (none of the 5-acyl-2,4,6-pyrimidinetriones, 5-alkylated pyrimidinetriones or the 5,5-dialkylated pyrimidinetriones showed antifungal activity through 125 μg/mL)

Structure (SMILES): O=C1NC(=O)C(=Cc2ccc3ccccc3c2)C(=O)N1 [BA40]
- MIC80 C. albicans [1, 7]: 125 µg/mL (≈ 469 µM)
- MIC80 C. glabrata [2, 7]: — (none of the 5-acyl-2,4,6-pyrimidinetriones, 5-alkylated pyrimidinetriones or the 5,5-dialkylated pyrimidinetriones showed antifungal activity through 125 μg/mL)

Structure (SMILES): O=C1NC(=O)C(=Cc2cccc3ccccc23)C(=O)N1 [BA41]
- MIC80 C. albicans [1, 7]: 125 µg/mL (≈ 469 µM)
- MIC80 C. glabrata [2, 7]: — (none of the 5-acyl-2,4,6-pyrimidinetriones, 5-alkylated pyrimidinetriones or the 5,5-dialkylated pyrimidinetriones showed antifungal activity through 125 μg/mL)

Structure (SMILES): CN1C(=O)C(=CC=Cc2ccccc2)C(=O)N(C)C1=O [BA43]
- MIC80 C. albicans [1, 7]: 62 µg/mL (≈ 229 µM)
- MIC80 C. glabrata [2, 7]: 125 µg/mL (≈ 462 µM)
